Activity data for one compound are collected here from ChEMBL document CHEMBL6109111.

The assay deals with Mus musculus. Put plainly: Inhibition of morphine-mediated intestinal motility in male Kunming mouse assessed as propulsion function at 4 mg/kg, ip pretreated with compound for 30 mins followed by morphine addition and measured after 30 mins by charcoal gavage based Intestinal motility assay. Conditions: time 60.0 min. Type of assay: functional, organism-based.

Molecules are shown by their SMILES. Active and inactive are the calls of the source. The rule behind the calls is not given here.

Turning to `C=CCN1CC[C@]23c4c5ccc(O)c4O[C@H]2C(=O)CC[C@@]3(O)[C@H]1C5`, the result was Active.
